# Test results from US20110152267A1, “Compositions and Methods for Treating Hyperproliferative Disorders” (Texas Tech University System, priority 2009, published 2011).
# Legend:
# Assay type in all cases: cell-based, human
# [1] = test system: A-2058 melanoma cell line; test: DIMSCAN cytotoxicity, fenretinide + L-threo-sphinganines 3:1 (Example B11); settings: 96 h
# Experimental: (§1) Cytotoxicity Assay—Once again, cytotoxicity is determined using the DIMSCAN assay system (R. Proffitt et al., Cytometry 24, 204-213 (1996); T. Frgala et al., Mol Cancer Ther. 6:886-97, 2007). The system employs digital imaging microscopy to quantify viable cells, which selectively accumulate fluorescein diacetate to become brightly fluorescent. The system is capable of measuring cytotoxicity over a 4-5 log dynamic range by quenching the residual fluorescence of dead and dying cells with eosin Y and quantifying the total fluorescence of viable cells using digital thresholding. Measured fluorescence is directly proportionate to the number of viable cells. A comparison of the total fluorescence of a drug-treated cell population to the fluorescence of a similar number of untreated cells yields a survival fraction. In brief, 2000 to 10,000 cells/well (depending on size and growth rates) are replicate plated into 60 wells of a 96-well tissue culture plate in 0.1 mL of whole medium and allowed to attach overnight. Drug(s) are then added in 0.05 mL of whole medium to the final concentrations indicated. Drugs (fenretinide, and various chain length L-threo-sphinganines) were tested both as single agents and in a 3:1 ratio of fenretinide:sphinganine. C18-L-threo-sphinganine, or “safingol,” was also tested and results shown for reference. There are 12 wells treated per drug concentration. Twelve wells receive drug vehicle-only to the appropriate final concentration and serve as controls for the plate. Cells are incubated for 96 hours at 37° C. in ambient air with 5% CO2. Fluorescein diacetate is then added to each well in 0.05 mL media to a final concentration of 8 microgram/mL. Cells are incubated for a further 15 minutes at 37° C. and 0.03 mL of 0.5% eosin Y is added to each well. Total fluorescence of viable cells is then measured by digital imaging microscopy. Results were graphed as the ratio of the fluoresecence of drug-treated wells to non-drug treated control wells (i.e., Survival Fraction). All tests were performed at least twice. Representative results are shown.
# (§2) The Combination Index (CI) is a term to describe mathematical modeling of the pharmacologic effects on cytotoxicity (cell death) of two drugs in combination based. Cytotoxic “synergy” is defined as a cell death affect which is greater than would be expected from a simple product of the single agent cytotoxicities alone (i.e. an “additive” effect). By Chou-Talalay analysis, a CI<0.9 on a Fraction Affected (“Fa”, i.e. fraction of cells killed) indicates synergy, with smaller numbers indicating greater synergy; a CI of 0.9-1.1 signifies an additive or near-additive effect; and a CI>1.1 means the drug combination is antagonistic.
# Fenretinide and L-threo-sphinganines tested in human melanoma (skin cancer) cell line, A-2058.
# [2] = test system: HT-29 colorectal adenocarcinoma cell line; test: DIMSCAN cytotoxicity, fenretinide + L-threo-sphinganines 3:1 (Example B10); settings: 96 h
# Experimental: as §1, §2
# Fenretinide and L-threo-sphinganines tested in human colorectal adenocarcinoma (colon cancer) cell line, HT-29.
# [3] = test system: U-118 Glioblastoma cell line; test: DIMSCAN cytotoxicity, fenretinide + L-threo-sphinganines 3:1 (Example B5); set-up: key to CI (Combination Index): CI<0.9 synergy, 0.9-1.1 additive, >1.1 antagonistic; settings: U-118 MG, 96 h
# Experimental: as §1, §2
# Fenretinide and L-threo-sphinganines tested in human Glioblastoma (brain cancer) cell line, U-118.
# [4] = test system: LNCaP prostate adenocarcinoma cell line; test: DIMSCAN cytotoxicity, fenretinide + L-threo-sphinganines 3:1 (Example B16); settings: LNCaP.FGC
# Experimental: as §1, §2
# Fenretinide and L-threo-sphinganines tested in human prostate adenocarcinoma (prostate cancer) cell line, LNCaP.
# [5] = test system: A-549 lung adenocarcinoma cell line; test: DIMSCAN cytotoxicity, fenretinide + L-threo-sphinganines 3:1 (Example B13); settings: 96 h
# Experimental: as §1, §2
# Fenretinide and L-threo-sphinganines tested in human lung adenocarcinoma (lung cancer) cell line, A-549.
# [6] = test system: OVCAR-8 ovarian adenocarcinoma cell line; test: DIMSCAN cytotoxicity, fenretinide + L-threo-sphinganines 3:1 (Example B15); set-up: key to CI (Combination Index): Chou-Talalay CI: <0.9 synergy, 0.9-1.1 additive, >1.1 antagonism; settings: 96 h
# Experimental: as §1, §2
# Fenretinide and L-threo-sphinganines tested in human ovarian adenocarcinoma (ovarian cancer) cell line, OVCAR-8.
# [7] = 4-HPR 1.5 μM + L-threo-sphinganine 0.5 μM
# [8] = 4-HPR 3 μM + L-threo-sphinganine 1 μM
# [9] = 4-HPR 6 μM + L-threo-sphinganine 2 μM
# [10] = 4-HPR 9 μM + L-threo-sphinganine 3 μM
smiles,measurement,setting,value
CCCCCCCCC[C@H](O)[C@@H](N)CO [C12],CI (Combination Index),[1]; [7],0.3
same,Fa (fraction affected),[1]; [7],0.244
same,CI (Combination Index),[1]; [8],0.6
same,Fa (fraction affected),[1]; [8],0.247
same,CI (Combination Index),[1]; [9],0.9
same,Fa (fraction affected),[1]; [9],0.518
same,CI (Combination Index),[1]; [10],1.0
same,Fa (fraction affected),[1]; [10],0.854
same,CI (Combination Index),[2]; [7],1.0
same,Fa (fraction affected),[2]; [7],0.217
same,CI (Combination Index),[2]; [8],1.2
same,Fa (fraction affected),[2]; [8],0.642
same,CI (Combination Index),[2]; [9],1.3
same,Fa (fraction affected),[2]; [9],0.951
same,CI (Combination Index),[2]; [10],1.6
same,Fa (fraction affected),[2]; [10],0.975
same,CI (Combination Index),[3]; [7],1.5
same,Fa (fraction affected),[3]; [7],0.226
same,CI (Combination Index),[3]; [8],1.0
same,Fa (fraction affected),[3]; [8],0.671
same,CI (Combination Index),[3]; [9],0.3
same,Fa (fraction affected),[3]; [9],0.988
same,CI (Combination Index),[3]; [10],0.2
same,Fa (fraction affected),[3]; [10],0.996
same,CI,[4]; [7],0.5
same,Fa,[4]; [7],0.870
same,CI,[4]; [8],0.3
same,Fa,[4]; [8],0.982
same,CI,[4]; [9],0.4
same,Fa,[4]; [9],0.996
same,CI,[4]; [10],0.4
same,Fa,[4]; [10],0.999
same,CI (Combination Index),[5]; [7],2.5
same,Fa (fraction affected),[5]; [7],0.01
same,CI (Combination Index),[5]; [8],1.0
same,Fa (fraction affected),[5]; [8],0.010
same,CI (Combination Index),[5]; [9],1.0
same,Fa (fraction affected),[5]; [9],0.010
same,CI (Combination Index),[5]; [10],1.0
same,Fa (fraction affected),[5]; [10],0.020
same,CI (Combination Index),[6]; [7],0.3
same,Fa (fraction affected),[6]; [7],0.382
same,CI (Combination Index),[6]; [8],0.5
same,Fa (fraction affected),[6]; [8],0.445
same,CI (Combination Index),[6]; [9],0.6
same,Fa (fraction affected),[6]; [9],0.634
same,CI (Combination Index),[6]; [10],0.8
same,Fa (fraction affected),[6]; [10],0.704
CCCCCCCCCCC[C@H](O)[C@@H](N)CO [C14],CI (Combination Index),[1]; [7],1.1
same,Fa (fraction affected),[1]; [7],0.045
same,CI (Combination Index),[1]; [8],1.2
same,Fa (fraction affected),[1]; [8],0.088
same,CI (Combination Index),[1]; [9],1.4
same,Fa (fraction affected),[1]; [9],0.193
same,CI (Combination Index),[1]; [10],1.3
same,Fa (fraction affected),[1]; [10],0.650
same,CI (Combination Index),[2]; [7],1.0
same,Fa (fraction affected),[2]; [7],0.215
same,CI (Combination Index),[2]; [8],1.3
same,Fa (fraction affected),[2]; [8],0.598
same,CI (Combination Index),[2]; [9],1.8
same,Fa (fraction affected),[2]; [9],0.822
same,CI (Combination Index),[2]; [10],1.4
same,Fa (fraction affected),[2]; [10],0.982
same,CI (Combination Index),[3]; [7],1.4
same,Fa (fraction affected),[3]; [7],0.318
same,CI (Combination Index),[3]; [8],1.2
same,Fa (fraction affected),[3]; [8],0.586
same,CI (Combination Index),[3]; [9],1.2
same,Fa (fraction affected),[3]; [9],0.814
same,CI (Combination Index),[3]; [10],0.4
same,Fa (fraction affected),[3]; [10],0.988
same,CI (Combination Index),[5]; [7],1
same,Fa (fraction affected),[5]; [7],0.01
same,CI (Combination Index),[5]; [8],1.0
same,Fa (fraction affected),[5]; [8],0.02
same,CI (Combination Index),[5]; [9],1.1
same,Fa (fraction affected),[5]; [9],0.072
same,CI (Combination Index),[5]; [10],0.5
same,Fa (fraction affected),[5]; [10],0.461
same,CI (Combination Index),[6]; [7],0.1
same,Fa (fraction affected),[6]; [7],0.696
same,CI (Combination Index),[6]; [8],0.1
same,Fa (fraction affected),[6]; [8],0.860
same,CI (Combination Index),[6]; [9],0.1
same,Fa (fraction affected),[6]; [9],0.978
same,CI (Combination Index),[6]; [10],0.1
same,Fa (fraction affected),[6]; [10],0.988
CCCCCCCCCCCC[C@H](O)[C@@H](N)CO [C15],CI (Combination Index),[1]; [7],0.5
same,Fa (fraction affected),[1]; [7],0.053
same,CI (Combination Index),[1]; [8],0.9
same,Fa (fraction affected),[1]; [8],0.106
same,CI (Combination Index),[1]; [9],1.6
same,Fa (fraction affected),[1]; [9],0.262
same,CI (Combination Index),[1]; [10],1.7
same,Fa (fraction affected),[1]; [10],0.867
same,CI (Combination Index),[2]; [7],2.0
same,Fa (fraction affected),[2]; [7],0.204
same,CI (Combination Index),[2]; [8],0.8
same,Fa (fraction affected),[2]; [8],0.660
same,CI (Combination Index),[2]; [9],1.1
same,Fa (fraction affected),[2]; [9],0.859
same,CI (Combination Index),[2]; [10],0.8
same,Fa (fraction affected),[2]; [10],0.976
same,CI (Combination Index),[3]; [7],0.4
same,Fa (fraction affected),[3]; [7],0.371
same,CI (Combination Index),[3]; [8],0.5
same,Fa (fraction affected),[3]; [8],0.577
same,CI (Combination Index),[3]; [9],0.4
same,Fa (fraction affected),[3]; [9],0.847
same,CI (Combination Index),[3]; [10],0.1
same,Fa (fraction affected),[3]; [10],0.989
same,CI (Combination Index),[5]; [7],1.9
same,Fa (fraction affected),[5]; [7],0.000
same,CI (Combination Index),[5]; [8],2.1
same,Fa (fraction affected),[5]; [8],0.000
same,CI (Combination Index),[5]; [9],0.9
same,Fa (fraction affected),[5]; [9],0.044
same,CI (Combination Index),[5]; [10],0.8
same,Fa (fraction affected),[5]; [10],0.342
same,CI (Combination Index),[6]; [7],0.1
same,Fa (fraction affected),[6]; [7],0.668
same,CI (Combination Index),[6]; [8],0.1
same,Fa (fraction affected),[6]; [8],0.854
same,CI (Combination Index),[6]; [9],0.1
same,Fa (fraction affected),[6]; [9],0.977
same,CI (Combination Index),[6]; [10],0.2
same,Fa (fraction affected),[6]; [10],0.977
CCCCCCCCCCCCCCCCCC[C@H](O)[C@@H](N)CO [C21],CI (Combination Index),[1]; [7],0.7
same,Fa (fraction affected),[1]; [7],0.016
same,CI (Combination Index),[1]; [8],1.4
same,Fa (fraction affected),[1]; [8],0.016
same,CI (Combination Index),[1]; [9],1.9
same,Fa (fraction affected),[1]; [9],0.333
same,CI (Combination Index),[1]; [10],1.9
same,Fa (fraction affected),[1]; [10],0.955
same,CI (Combination Index),[2]; [7],1.2
same,Fa (fraction affected),[2]; [7],0.149
same,CI (Combination Index),[2]; [8],1.2
same,Fa (fraction affected),[2]; [8],0.630
same,CI (Combination Index),[2]; [9],1.8
same,Fa (fraction affected),[2]; [9],0.857
same,CI (Combination Index),[2]; [10],2.3
same,Fa (fraction affected),[2]; [10],0.918
same,CI (Combination Index),[3]; [7],1.3
same,Fa (fraction affected),[3]; [7],0.588
same,CI (Combination Index),[3]; [8],1.5
same,Fa (fraction affected),[3]; [8],0.836
same,CI (Combination Index),[3]; [9],0.6
same,Fa (fraction affected),[3]; [9],0.995
same,CI (Combination Index),[3]; [10],0.5
same,Fa (fraction affected),[3]; [10],0.999
same,CI (Combination Index),[5]; [7],0.9
same,Fa (fraction affected),[5]; [7],0.078
same,CI (Combination Index),[5]; [8],2.6
same,Fa (fraction affected),[5]; [8],0.044
same,CI (Combination Index),[5]; [9],0.8
same,Fa (fraction affected),[5]; [9],0.51
same,CI (Combination Index),[5]; [10],0.4
same,Fa (fraction affected),[5]; [10],0.972
same,CI (Combination Index),[6]; [7],0.1
same,Fa (fraction affected),[6]; [7],0.626
same,CI (Combination Index),[6]; [8],0.1
same,Fa (fraction affected),[6]; [8],0.870
same,CI (Combination Index),[6]; [9],0.1
same,Fa (fraction affected),[6]; [9],0.977
same,CI (Combination Index),[6]; [10],0.2
same,Fa (fraction affected),[6]; [10],0.975
